PubChem BioAssay AID2060885 (Molecular Pharmacology Branch, DTP, NCI, 2025)

System: NCI-H23 complex spheroids with HUVEC/MSC, viability
Assay: Anticancer human tumor NCI-H23 cell line growth inhibition [RAS];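 further: spheroids exposed to compound for 7 days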;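 on viability, T/C: 100% = DMSO vehicle control viability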
Conditions: for IC50: curve of first compound; for viability, T/C: stronger effect = lower value
Method in brief: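 Tumour cells grown as complex spheroids with HUVEC endothelial cells and mesenchymal stem cells, treated with RAS pathway inhibitor combinations. Each agent spans half-log steps from near clinical Cmax, or 10 microM where Cmax is unknown.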

[1] = second compound 0.0316 µM, first compound 0.0316 µM
[2] = second compound 0.0316 µM, first compound 0.1 µM
[3] = second compound 0.0316 µM, first compound 0.316 µM
[4] = second compound 0.0316 µM, first compound 1 µM
[5] = second compound 0.1 µM, first compound 0.0316 µM
[6] = second compound 0.1 µM, first compound 0.1 µM
[7] = second compound 0.1 µM, first compound 0.316 µM
[8] = second compound 0.1 µM, first compound 1 µM
[9] = second compound 0.316 µM, first compound 0.0316 µM
[10] = second compound 0.316 µM, first compound 0.1 µM
[11] = second compound 0.316 µM, first compound 0.316 µM
[12] = second compound 0.316 µM, first compound 1 µM
[13] = second compound 1 µM, first compound 0.0316 µM
[14] = second compound 1 µM, first compound 0.1 µM
[15] = second compound 1 µM, first compound 0.316 µM
[16] = second compound 1 µM, first compound 1 µM
[17] = second compound 3.16 µM, first compound 0.0316 µM
[18] = second compound 3.16 µM, first compound 0.1 µM
[19] = second compound 3.16 µM, first compound 0.316 µM
[20] = second compound 3.16 µM, first compound 1 µM
[21] = second compound 10 µM, first compound 0.0316 µM
[22] = second compound 10 µM, first compound 0.1 µM
[23] = second compound 10 µM, first compound 0.316 µM
[24] = second compound 10 µM, first compound 1 µM

## CCc1c2c(nc3ccc(O)cc13)-c1cc3c(c(=O)n1C2)COC(=O)[C@]3(O)CC + CCn1c(-c2cc(N3CCN(C)CC3)cnc2C(C)OC)c2c3cc(ccc31)-c1csc(n1)CC(NC(=O)C1CC1C)C(=O)N1CCCC(N1)C(=O)OCC(C)(C)C2
Second compound 0.000949 µM
  IC50: < 0.949 nM
Second compound 0.003 µM
  IC50: < 0.949 nM
Second compound 0.00949 µM
  IC50: < 0.949 nM
Second compound 0.03 µM
  IC50: < 0.949 nM
Second compound 0.0949 µM
  IC50: < 0.949 nM
Second compound 0.3 µM
  IC50: < 0.949 nM
Second compound 0.000949 µM, first compound 0.000949 µM
  viability, T/C: 40.7%
Second compound 0.000949 µM, first compound 0.003 µM
  viability, T/C: 21%
Second compound 0.000949 µM, first compound 0.00949 µM
  viability, T/C: 4.92%
Second compound 0.000949 µM, first compound 0.03 µM
  viability, T/C: 2.52%
Second compound 0.000949 µM, first compound 0.0949 µM
  viability, T/C: 1.86%
Second compound 0.000949 µM, first compound 0.3 µM
  viability, T/C: 0.88%
Second compound 0.003 µM, first compound 0.000949 µM
  viability, T/C: 32.5%
Second compound 0.003 µM, first compound 0.003 µM
  viability, T/C: 13.4%
Second compound 0.003 µM, first compound 0.00949 µM
  viability, T/C: 4.98%
Second compound 0.003 µM, first compound 0.03 µM
  viability, T/C: 1.97%
Second compound 0.003 µM, first compound 0.0949 µM
  viability, T/C: 1.43%
Second compound 0.003 µM, first compound 0.3 µM
  viability, T/C: 1.2%
Second compound 0.00949 µM, first compound 0.000949 µM
  viability, T/C: 26.2%
Second compound 0.00949 µM, first compound 0.003 µM
  viability, T/C: 11.2%
Second compound 0.00949 µM, first compound 0.00949 µM
  viability, T/C: 5.03%
Second compound 0.00949 µM, first compound 0.03 µM
  viability, T/C: 1.84%
Second compound 0.00949 µM, first compound 0.0949 µM
  viability, T/C: 1.75%
Second compound 0.00949 µM, first compound 0.3 µM
  viability, T/C: 1.2%
Second compound 0.03 µM, first compound 0.000949 µM
  viability, T/C: 20.6%
Second compound 0.03 µM, first compound 0.003 µM
  viability, T/C: 11.9%
Second compound 0.03 µM, first compound 0.00949 µM
  viability, T/C: 5.17%
Second compound 0.03 µM, first compound 0.03 µM
  viability, T/C: 2.36%
Second compound 0.03 µM, first compound 0.0949 µM
  viability, T/C: 1.52%
Second compound 0.03 µM, first compound 0.3 µM
  viability, T/C: 1.97%
Second compound 0.0949 µM, first compound 0.000949 µM
  viability, T/C: 16%
Second compound 0.0949 µM, first compound 0.003 µM
  viability, T/C: 10.9%
Second compound 0.0949 µM, first compound 0.00949 µM
  viability, T/C: 4.9%
Second compound 0.0949 µM, first compound 0.03 µM
  viability, T/C: 3.03%
Second compound 0.0949 µM, first compound 0.0949 µM
  viability, T/C: 1.77%
Second compound 0.0949 µM, first compound 0.3 µM
  viability, T/C: 2.09%
Second compound 0.3 µM, first compound 0.000949 µM
  viability, T/C: 15.7%
Second compound 0.3 µM, first compound 0.003 µM
  viability, T/C: 10.6%
Second compound 0.3 µM, first compound 0.00949 µM
  viability, T/C: 4.9%
Second compound 0.3 µM, first compound 0.03 µM
  viability, T/C: 2.44%
Second compound 0.3 µM, first compound 0.0949 µM
  viability, T/C: 2.32%
Second compound 0.3 µM, first compound 0.3 µM
  viability, T/C: 2.38%

## CC(C)NCC(C(=O)N1CCN(c2ncnc3c2C(C)CC3O)CC1)c1ccc(Cl)cc1 (stereo unspecified) + C#Cc1c(F)ccc2cc(O)cc(-c3ncc4c(N5CC6CCC(C5)N6)nc(OCC56CCCN5CC(F)C6)nc4c3F)c12
Second compound 0.0316 µM
  IC50: > 10000 nM
Second compound 0.1 µM
  IC50: > 10000 nM
Second compound 0.316 µM
  IC50: > 10000 nM
Second compound 1 µM
  IC50: > 10000 nM
Second compound 3.16 µM
  IC50: 520 nM
Second compound 10 µM
  IC50: < 31.6 nM
[1]
  viability, T/C: 100%
[2]
  viability, T/C: 133%
[3]
  viability, T/C: 89.4%
[4]
  viability, T/C: 90.5%
Second compound 0.0316 µM, first compound 3.16 µM
  viability, T/C: 76%
Second compound 0.0316 µM, first compound 10 µM
  viability, T/C: 74.2%
[5]
  viability, T/C: 107%
[6]
  viability, T/C: 122%
[7]
  viability, T/C: 95.3%
[8]
  viability, T/C: 91%
Second compound 0.1 µM, first compound 3.16 µM
  viability, T/C: 69.7%
Second compound 0.1 µM, first compound 10 µM
  viability, T/C: 66.6%
[9]
  viability, T/C: 122%
[10]
  viability, T/C: 131%
[11]
  viability, T/C: 99.7%
[12]
  viability, T/C: 84.4%
Second compound 0.316 µM, first compound 3.16 µM
  viability, T/C: 70.2%
Second compound 0.316 µM, first compound 10 µM
  viability, T/C: 55.7%
[13]
  viability, T/C: 108%
[14]
  viability, T/C: 101%
[15]
  viability, T/C: 73.6%
[16]
  viability, T/C: 66.7%
Second compound 1 µM, first compound 3.16 µM
  viability, T/C: 56.1%
Second compound 1 µM, first compound 10 µM
  viability, T/C: 49%
[17]
  viability, T/C: 68.6%
[18]
  viability, T/C: 69%
[19]
  viability, T/C: 51.6%
[20]
  viability, T/C: 44.9%
Second compound 3.16 µM, first compound 3.16 µM
  viability, T/C: 37.9%
Second compound 3.16 µM, first compound 10 µM
  viability, T/C: 32.6%
[21]
  viability, T/C: 38.4%
[22]
  viability, T/C: 40.9%
[23]
  viability, T/C: 34.1%
[24]
  viability, T/C: 26.1%
Second compound 10 µM, first compound 3.16 µM
  viability, T/C: 22.8%
Second compound 10 µM, first compound 10 µM
  viability, T/C: 18.5%

## C=CC(=O)Nc1cc(Nc2nccc(-c3cn(C)c4ccccc34)n2)c(OC)cc1N(C)CCN(C)C + C#Cc1c(F)ccc2cc(O)cc(-c3ncc4c(N5CC6CCC(C5)N6)nc(OCC56CCCN5CC(F)C6)nc4c3F)c12
Second compound 0.0316 µM
  IC50: > 1000 nM
Second compound 0.1 µM
  IC50: > 1000 nM
Second compound 0.316 µM
  IC50: > 1000 nM
Second compound 1 µM
  IC50: > 1000 nM
Second compound 3.16 µM
  IC50: 81.8 nM
Second compound 10 µM
  IC50: < 3.16 nM
Second compound 0.0316 µM, first compound 0.00316 µM
  viability, T/C: 101%
Second compound 0.0316 µM, first compound 0.01 µM
  viability, T/C: 128%
[1]
  viability, T/C: 101%
[2]
  viability, T/C: 99.2%
[3]
  viability, T/C: 98.4%
[4]
  viability, T/C: 102%
Second compound 0.1 µM, first compound 0.00316 µM
  viability, T/C: 109%
Second compound 0.1 µM, first compound 0.01 µM
  viability, T/C: 113%
[5]
  viability, T/C: 95.7%
[6]
  viability, T/C: 93.6%
[7]
  viability, T/C: 101%
[8]
  viability, T/C: 112%
Second compound 0.316 µM, first compound 0.00316 µM
  viability, T/C: 104%
Second compound 0.316 µM, first compound 0.01 µM
  viability, T/C: 122%
[9]
  viability, T/C: 95.5%
[10]
  viability, T/C: 90%
[11]
  viability, T/C: 89.8%
[12]
  viability, T/C: 89.3%
Second compound 1 µM, first compound 0.00316 µM
  viability, T/C: 107%
Second compound 1 µM, first compound 0.01 µM
  viability, T/C: 109%
[13]
  viability, T/C: 93%
[14]
  viability, T/C: 86.6%
[15]
  viability, T/C: 77.1%
[16]
  viability, T/C: 85.3%
Second compound 3.16 µM, first compound 0.00316 µM
  viability, T/C: 64.5%
Second compound 3.16 µM, first compound 0.01 µM
  viability, T/C: 64.1%
[17]
  viability, T/C: 60.2%
[18]
  viability, T/C: 47.3%
[19]
  viability, T/C: 43.5%
[20]
  viability, T/C: 52.8%
Second compound 10 µM, first compound 0.00316 µM
  viability, T/C: 41.9%
Second compound 10 µM, first compound 0.01 µM
  viability, T/C: 45.8%
[21]
  viability, T/C: 36.1%
[22]
  viability, T/C: 34%
[23]
  viability, T/C: 30%
[24]
  viability, T/C: 30.1%
